Data as given in patent US20240317735A1, “HYDROISOQUINOLINE OR HYDRONAPHTHYRIDINE COMPOUNDS FOR THE TREATMENT OF AUTOIMMUNE DISEASE” (Hoffmann-La Roche Inc., priority 2020, published 2024).

Target: T1, human TLR7 (Homo sapiens, UniProt Q9NYK1)
T1 construct: host or cells: HEK293 (HEK-Blue hTLR7)
T1 sequence (Q9NYK1 27-1049): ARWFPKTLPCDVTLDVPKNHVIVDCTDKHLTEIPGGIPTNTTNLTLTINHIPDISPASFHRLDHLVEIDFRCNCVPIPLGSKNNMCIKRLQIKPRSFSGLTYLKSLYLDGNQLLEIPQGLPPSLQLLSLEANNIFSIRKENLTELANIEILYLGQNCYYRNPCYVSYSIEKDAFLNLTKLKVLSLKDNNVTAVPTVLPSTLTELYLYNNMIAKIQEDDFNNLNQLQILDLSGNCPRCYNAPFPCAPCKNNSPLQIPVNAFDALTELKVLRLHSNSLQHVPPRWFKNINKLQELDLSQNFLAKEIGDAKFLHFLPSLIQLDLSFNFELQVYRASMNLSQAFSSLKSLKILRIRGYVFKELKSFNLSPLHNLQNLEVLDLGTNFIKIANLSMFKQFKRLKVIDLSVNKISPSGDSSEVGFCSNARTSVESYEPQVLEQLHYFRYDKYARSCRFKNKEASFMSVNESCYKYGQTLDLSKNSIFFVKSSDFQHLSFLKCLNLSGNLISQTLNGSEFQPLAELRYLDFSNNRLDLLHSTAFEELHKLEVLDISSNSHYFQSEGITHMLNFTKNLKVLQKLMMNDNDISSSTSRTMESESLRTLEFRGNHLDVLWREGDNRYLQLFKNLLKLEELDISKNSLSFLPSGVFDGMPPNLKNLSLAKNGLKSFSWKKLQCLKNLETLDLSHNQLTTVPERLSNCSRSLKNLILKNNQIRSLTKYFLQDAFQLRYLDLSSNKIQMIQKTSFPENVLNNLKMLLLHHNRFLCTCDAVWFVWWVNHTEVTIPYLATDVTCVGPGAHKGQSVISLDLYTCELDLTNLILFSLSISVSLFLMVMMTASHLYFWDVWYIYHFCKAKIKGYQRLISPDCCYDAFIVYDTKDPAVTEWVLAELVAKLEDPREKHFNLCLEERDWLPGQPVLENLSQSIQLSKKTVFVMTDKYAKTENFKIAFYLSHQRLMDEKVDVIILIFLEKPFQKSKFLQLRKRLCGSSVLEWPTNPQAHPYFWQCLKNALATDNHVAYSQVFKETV
Test: HEK293-Blue-hTLR-7 cells assay (SEAP reporter, R848 stimulation)
Type: cell-based
Conditions: HEK293-Blue-hTLR7 cells, R848, 20 hrs; read-out: HEK/hTLR7 IC50
Description: The following tests were carried out in order to determine the activity of the compounds of formula (I) and (Ia) in HEK293-Blue-hTLR-7/8/9 cells assay.
A stable HEK293-Blue-hTLR-7 cell line was purchased from InvivoGen (Cat. #: hkb-htlr7, San Diego, California, USA). These cells were originally designed for studying the stimulation of human TLR7 by monitoring the activation of NF-κB. A SEAP (secreted embryonic alkaline phosphatase) reporter gene was placed under the control of the IFN-β minimal promoter fused to five NF-κB and AP-1-binding sites. The SEAP was induced by activating NF-κB and AP-1 via stimulating HEK-Blue hTLR7 cells with TLR7 ligands. Therefore the reporter expression w % as declined by TLR7 antagonist under the stimulation of a ligand, such as R848 (Resiquimod), for incubation of 20 hrs. The cell culture supernatant SEAP reporter activity was determined using QUANTI-Blue™ kit (Cat. #: rep-qb1, Invivogen, San Diego, Ca, USA) at a wavelength of 640 nm, a detection medium that turns purple or blue in the presence of alkaline phosphatase.
HEK293-Blue-hTLR7 cells were incubated at a density of 250,000˜450,000 cells/mL in a volume of 170 μL in a 96-well plate in Dulbecco's Modified Eagle's medium (DMEM) containing 4.5 g/L glucose, 50 U/mL penicillin, […], […] Normocin, 2 mM L-glutamine, 10% (v/v) heat-inactivated fetal bovine serum with addition of 20 μL test compound in a serial dilution in the presence of final DMSO at 1% and 10 μL of 20 uM R848 in above DMEM, perform incubation under 37° C. in a C02 incubator for 20 hrs. Then 20 μL of the supernatant from each well was incubated with 180 μL Quanti-blue substrate solution at 37° C. for 2 hrs and the absorbance was read at 620˜655 nm using a spectrophotometer. The signaling pathway that TLR7 activation leads to downstream NF-κB activation has been widely accepted, and therefore similar reporter assay was modified for evaluating TLR7 antagonist.

Row | Compound | IC50
1 | CO[C@@H]1CN(c2ccc3c(c2)[C@@H](C)CN(c2ccnc4c2cnn4C)C3)C[C@H]1N [Example 20, (3R,4R)-4-methoxy-1-[(4R)-4-methyl-2-(1-methylpyrazolo[3,4-b]pyridin-4-yl)-3,4-dihydro-1H-isoquinolin-6-yl]pyrrolidin-3-amine] | 3 nM
2 | CO[C@@H]1CN(c2ccc3c(c2)[C@@H](C)CN(c2cc(C)nc4c2cnn4C)C3)C[C@H]1N [Example 23, (3R,4R)-4-methoxy-1-[(4R)-2-(1,6-dimethylpyrazolo[3,4-b]pyridin-4-yl)-4-methyl-3,4-dihydro-1H-isoquinolin-6-yl]pyrrolidin-3-amine] | 5 nM
3 | C[C@H]1CN(c2ccnc3c2cnn3C)Cc2ccc(N3C4CCC3CNC4)cc21 [Example 27, (4R)-6-(3,8-diazabicyclo[3.2.1]octan-8-yl)-4-methyl-2-(1-methylpyrazolo[3,4-b]pyridin-4-yl)-3,4-dihydro-1H-isoquinoline] | 4 nM
4 | C[C@H]1CN(c2ccnc3c2cnn3C)Cc2ccc(N3CCC(N4CC(N)C4)CC3)cc21 [Example 28, 1-[1-[(4R)-4-methyl-2-(1-methylpyrazolo[3,4-b]pyridin-4-yl)-3,4-dihydro-1H-isoquinolin-6-yl]-4-piperidyl]azetidin-3-amine] | 4 nM
5 | C[C@H]1CN(c2ccnc3c2cnn3C)Cc2ccc(N3CCC(N4CC[C@@H](N)[C@H](O)C4)CC3)cc21 [Example 29, trans-4-amino-1-[1-[(4R)-4-methyl-2-(1-methylpyrazolo[3,4-b]pyridin-4-yl)-3,4-dihydro-1H-isoquinolin-6-yl]-4-piperidyl]piperidin-3-ol] | 9 nM
6 | Cc1cc(N2Cc3ccc(OC[C@H]4CNCCN4)cc3[C@@H](C)C2)c2cnn(C)c2n1 [Example 30, (4R)-2-(1,6-dimethylpyrazolo[3,4-b]pyridin-4-yl)-4-methyl-6-[[(2R)-piperazin-2-yl]methoxy]-3,4-dihydro-1H-isoquinoline] | 37 nM
7 | Cc1cc(N2Cc3ccc(OC[C@@H]4CNCCN4)cc3[C@@H](C)C2)c2cnn(C)c2n1 [Example 31, (4R)-2-(1,6-dimethylpyrazolo[3,4-b]pyridin-4-yl)-4-methyl-6-[[(2S)-piperazin-2-yl]methoxy]-3,4-dihydro-1H-isoquinoline] | 24 nM
8 | C[C@H]1CN(c2ccnc3c2cnn3C)Cc2ccc(N3CCN(S(=O)(=O)C4CCNC4)CC3)cc21 (stereo partly drawn) [Example 33, (4R)-4-methyl-2-(1-methylpyrazolo[3,4-b]pyridin-4-yl)-6-(4-pyrrolidin-3-ylsulfonylpiperazin-1-yl)-3,4-dihydro-1H-isoquinoline] | 6 nM
9 | C[C@H]1CN(c2ccnc3c2cnn3C)Cc2ccc(N3CCN(Cc4cn(C)cn4)CC3)cc21 [Example 37, (4R)-4-methyl-6-[4-[(1-methylimidazol-4-yl)methyl]piperazin-1-yl]-2-(1-methylpyrazolo[3,4-b]pyridin-4-yl)-3,4-dihydro-1H-isoquinoline] | 14 nM
10 | C[C@H]1CN(c2ccnc3c2cnn3C)Cc2ccc(N3CCN(CCN(C)C)CC3)cc21 [Example 38, N,N-dimethyl-2-[4-[(4R)-4-methyl-2-(1-methylpyrazolo[3,4-b]pyridin-4-yl)-3,4-dihydro-1H-isoquinolin-6-yl]piperazin-1-yl]ethanamine] | 3 nM
11 | C[C@H]1CN(c2ccnc3c2cnn3C)Cc2ccc(OCCN3CCNCC3)cc21 [Example 40, (4R)-4-methyl-2-(1-methylpyrazolo[3,4-b]pyridin-4-yl)-6-(2-piperazin-1-ylethoxy)-3,4-dihydro-1H-isoquinoline] | 8 nM
12 | C[C@H]1CN(c2ccnc3c2cnn3C)Cc2ccc(OC3CN(C4CCNCC4)C3)cc21 [Example 41, (4R)-4-methyl-2-(1-methylpyrazolo[3,4-b]pyridin-4-yl)-6-[1-(4-piperidyl)azetidin-3-yl]oxy-3,4-dihydro-1H-isoquinoline] | 7 nM
13 | C[C@H]1CN(c2ccnc3c2cnn3C)Cc2ccc(O[C@@H]3C[C@H]4CNCCN4C3)cc21 [Example 42, (4R)-4-methyl-2-(1-methylpyrazolo[3,4-b]pyridin-4-yl)-6-[[(7R,8aS)-1,2,3,4,6,7,8,8a-octahydropyrrolo[1,2-a]pyrazin-7-yl]oxy]-3,4-dihydro-1H-isoquinoline] | 3 nM
14 | C[C@H]1CN(c2ccnc3c2cnn3C)Cc2ccc(OC[C@H]3CNCCN3C)cc21 [Example 43, (4R)-4-methyl-2-(1-methylpyrazolo[3,4-b]pyridin-4-yl)-6-[[(2R)-1-methylpiperazin-2-yl]methoxy]-3,4-dihydro-1H-isoquinoline] | 8 nM
15 | C[C@H]1CN(c2ccnc3c2cnn3C)Cc2ccc(OC[C@@H]3CNCCN3C)cc21 [Example 44, (4R)-4-methyl-2-(1-methylpyrazolo[3,4-b]pyridin-4-yl)-6-[[(2S)-1-methylpiperazin-2-yl]methoxy]-3,4-dihydro-1H-isoquinoline] | 15 nM

More lines, now with the values ahead:

Row | IC50 | Compound
16 | 7 nM | C[C@H]1CN(c2ccnc3c2cnn3C)Cc2ccc(N3CC4(CNCCO4)C3)cc21 [Example 21, 2-[(4R)-4-methyl-2-(1-methylpyrazolo[3,4-b]pyridin-4-yl)-3,4-dihydro-1H-isoquinolin-6-yl]-5-oxa-2,8-diazaspiro[3.5]nonane]
17 | 10 nM | CCn1ncc2c(N3Cc4ccc(N5CCNCC5)cc4[C@@H](C)C3)ccnc21 [Example 22, (4R)-2-(1-ethylpyrazolo[3,4-b]pyridin-4-yl)-4-methyl-6-piperazin-1-yl-3,4-dihydro-1H-isoquinoline]
18 | 10 nM | C[C@H]1CN(c2ccnc3c2cnn3C)Cc2ccc(N3C[C@H]4CNCCN4C3=O)cc21 [Example 24, (8aR)-2-[(4R)-4-methyl-2-(1-methylpyrazolo[3,4-b]pyridin-4-yl)-3,4-dihydro-1H-isoquinolin-6-yl]-1,5,6,7,8,8a-hexahydroimidazo[1,5-a]pyrazin-3-one]
19 | 15 nM | C[C@H]1CN(c2ccnc3c2cnn3C)Cc2ccc(N3C[C@@H]4CNCCN4C3=O)cc21 [Example 25, (8aS)-2-[(4R)-4-methyl-2-(1-methylpyrazolo[3,4-b]pyridin-4-yl)-3,4-dihydro-1H-isoquinolin-6-yl]-1,5,6,7,8,8a-hexahydroimidazo[1,5-a]pyrazin-3-one]
20 | 7 nM | C[C@H]1CN(c2ccnc3c2cnn3C)Cc2ccc(N3CC4(CCNCC4)OC3=O)cc21 [Example 26, 3-[(4R)-4-methyl-2-(1-methylpyrazolo[3,4-b]pyridin-4-yl)-3,4-dihydro-1H-isoquinolin-6-yl]-1-oxa-3,8-diazaspiro[4.5]decan-2-one]
21 | 26 nM | C[C@H]1CN(c2ccnc3c2cnn3C)Cc2ccc(N3CC4(CNC4)CC3=O)cc21 [Example 34, 6-[(4R)-4-methyl-2-(1-methylpyrazolo[3,4-b]pyridin-4-yl)-3,4-dihydro-1H-isoquinolin-6-yl]-2,6-diazaspiro[3.4]octan-7-one]
22 | 24 nM | C[C@H]1CN(c2ccnc3c2cnn3C)Cc2ccc(N3CC4(CCNC4)OC3=O)cc21 (stereo partly drawn) [Example 35, 3-[(4R)-4-methyl-2-(1-methylpyrazolo[3,4-b]pyridin-4-yl)-3,4-dihydro-1H-isoquinolin-6-yl]-1-oxa-3,7-diazaspiro[4.4]nonan-2-one]
